Measured values reported in patent US20230330093A1, “APPLICATION OF NITROGEN-CONTAINING SATURATED HETEROCYCLIC COMPOUND” (SHANGHAI PHARMACEUTICALS HOLDING CO., LTD., priority 2020, published 2023).

System: rhesus monkeys with spontaneous chronic kidney disease
Assay: Safety tolerance study (adverse events, liver and renal function, food intake, body weight, hematology), 8-week administration
Assay type: in vivo, Macaca mulatta (Rhesus Macaque)
Details: 1, 2, 5 mg/kg qd groups, 8-week administration period
Text: Glucose and lipid metabolism and liver function: FPG, FRA, LDL-c, HDL-c, TG, TC, NT-proBNP, ALT, AST, TBIL, etc., twice before administration, once at weeks 4 and 8 respectively after administration;
Other biochemical indicators and hematology testing, once each before and after administration;
Body weight: once before administration, once a week during the administration period;
Hematology testing equipment: Siemens ADVIA 2120i Hematology Systems.
Number of observations: Observation was performed once a day.
Observation method: observation in cage.
Observation content: injection site, skin, hair, eyes, ears, nose, oral cavity, chest, abdomen, urogenital, limbs and other parts, as well as breathing, exercise, urinary, defecation and behavior changes.
Feeding method: Food was supplied once at 8:009:00 in the morning, 10:00 in the morning, 2:00 in the afternoon, and 4:00 in the afternoon, respectively, to ensure that there was food in the food box and animals ate freely. The remaining feed was removed at 07:40-8:00 in the next day.
Feeding amount: about 250-500 g/animal/day. In the experiment, it was ensured that there was feed in the food box for 24 hours, and the animals can eat freely.
Method for measuring food intake: The feed was estimated by a semi-quantitative method, and the amount of food given, the amount discarded and the remaining amount in food boxes were recorded every day. […]

COC(=O)NCCCn1nc([C@@H](C)N(C(=O)[C@H]2CNCCO2)C2CC2)c2ccc(C)nc21.O=C(O)C[C@H](O)C(=O)O [malate of compound of Formula I]
adverse events related to administration: no adverse events related to administration
changes in liver function, renal function, food intake, body weight, hematological indicators: no significant changes were observed
